The text below walks through data of paper PMC5402281, “Functional, thermodynamics, structural and biological studies of in silico-identified inhibitors of Mycobacterium tuberculosis enoyl-ACP(CoA) reductase enzyme” (Scientific Reports, 2017).

What is called Kd is a measure of binding affinity in units of concentration. One may read the viability as a read-out of living cells in per cent, often relative to untreated cells.

Series [1] is classed as physicochemical. The method, then: An HPLC equipped with a quaternary pump, DAD detector, degasser, column oven and an automatic injection system was used in this set of experiments (Thermo® Scientific, Sunnyvale, USA). Stock standard solutions (1 M) of Labio_16 and Labio_17 were prepared by diluting each standard in DMSO. Standard solutions were prepared by diluting the stock solution in fish water, yielding final concentrations of 0.625, 1.25, 2.50, 5.0 and 10.0 μM for Labio_16; and 0.625, 1.25, 2.50, 5.0, 10.0 and 20 μM for Labio_17 in a final volume of 0.5 mL.
Chromatographic separations were carried out using a Nucleodur C-18 column at 20 °C. The mobile phase was a 20:80% mixture of 0.1% glacial acetic acid and acetonitrile:methanol 1:1 (v/v) for Labio_16, and a mixture of 20:80% of 20 mM of ammonium acetate and acetonitrile:methanol 1:1 (v/v) for Labio_17. A flow rate of 1.5 mL min^−1 was employed in isocratic mode, with run time of 7 minutes for Labio_16 and 12 minutes for Labio_17. The DAD detector was set at 300 nm and a full scan was continuously performed. The calibration curve for both analytes presented a correlation coefficient above 0.99.

For series [2], the target named is T1, MtInhA:NADH binary complex (Mycobacterium tuberculosis, UniProt P9WGR1).
T1 construct: made in house
T1 sequence (P9WGR1 whole entry, looked up, one chain of several): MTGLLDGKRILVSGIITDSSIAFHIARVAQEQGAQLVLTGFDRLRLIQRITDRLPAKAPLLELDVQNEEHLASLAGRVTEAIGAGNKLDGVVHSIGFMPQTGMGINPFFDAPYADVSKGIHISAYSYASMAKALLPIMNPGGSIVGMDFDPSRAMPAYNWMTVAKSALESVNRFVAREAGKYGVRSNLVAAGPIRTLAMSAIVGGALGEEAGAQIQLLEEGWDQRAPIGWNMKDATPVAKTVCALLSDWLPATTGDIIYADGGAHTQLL
The series is described as follows: biochemical. It is filed as binding. The settings on record: for ΔG: estimated from ΔH and ΔS (Eq. 7); for ΔH / ΔS: van't Hoff analysis, 15–30 °C.

Series [3] deals with M. tuberculosis H37Rv. The series is described as follows: microbe, parasite or virus in culture. The format is cell-based. The settings on record: Mycobacterium tuberculosis.
Series [4] is described as follows: in vitro. The format is cell-based. The protocol:
(§1) Cellular viability determination after incubation with the test compounds (Labio_16 and Labio_17) was performed essentially as described elsewhere. Briefly, Vero (and Hacat/RAW) cells were grown in DMEM media supplemented with 10% inactivated fetal bovine serum and 1% penicillin-streptomycin. The cells were maintained in culture bottles at 37 °C in humidified atmosphere with 5% CO2. Cells were seeded at 3 × 10^3 cells per well (for Hacat/RAW or Vero) in a 96-well microtiter plate and incubated for 24 hours to adhere. Medium was carefully aspirated and replaced with 90 μL DMEM, and 10 μL of stocks of the chemical compounds were added to a final concentration of 20 μM (DMSO 2.0%, v/v). After 72 h at 37 °C under 5% of CO2, the cultures were incubated with 3-(4,5-dimethylthiazol-2-yl)-2,5-diphenyltetrazolium bromide (MTT) (1 mg mL^−1) for 3 h. The formazan crystals were dried at room temperature for at least 24 h and dissolved in DMSO. The absorbance was measured at 595 nm (Spectra Max M2e, Molecular Devices, USA). The percentage of cell viability for treated groups was reported considering the control wells (DMSO 0.5%-treated) as 100% of cell viability: cell viability (%) = (absorbance of treated wells/absorbance of control wells) x 100. Data are expressed as mean of cell viability ± standard error of mean of three independent experiments performed in triplicate.

The test system of series [5] is Zebrafish embryos. Put plainly: Zebrafish embryo toxicity: survival, hatching, heart frequency. It is filed as in vivo, Danio rerio. The settings on record: for cardiotoxicity in the Zebrafish model: overall conclusion; for survival rate: treated from 2 hpf for 5 days, vs controls, Kaplan Meier. The method, then:
Wild-type Zebrafish embryos were obtained from natural mating of adult Danio rerio bred[25] and maintained in an automated re-circulating tank system (Tecniplast, Italy). At 2 hpf (hours post fertilization) embryos were treated with different concentrations of compounds Labio_16 and Labio_17. Both compounds were diluted in DMSO for stock solutions of […] and diluted in fish water (Reverse Osmosis equilibrated with Instant Ocean Salt) to final concentrations of 1.0 μM, 3.5 μM and 7.0 μM (compound Labio_16) and 0.1 μM, 1.0 μM, 7.5 μM and 13.0 μM (compound Labio_17). Since both compounds were diluted first in DMSO, there were two control groups for each treatment, one only with fish water and the other one with the highest concentration of DMSO used in the treatments (0.035% for Labio_16 treatment and 0.065% for Labio_17 treatment).
Embryos were maintained in a 96 well plate during the 5 days of treatment inside an incubator with light-dark cycle of 14–10 hours and controlled temperature (28 °C)[25]. The solution pH and conductivity were monitored. Survival and hatching efficiency were accompanied under a stereomicroscope (OlympusSZ4045) every day, as well as developmental toxicity. Data for survival evaluation were analysed by Kaplan Meier survival test.
At 2 dpf (days post fertilization) and 5 dpf embryos heart frequency were quantified. For this, a single embryo per larvae was placed under a stereomicroscope (OlympusSZ4045) in petri-dishes with system water and their heart rate was monitored for 60 seconds by a blind experimenter (N = 10 in triplicates)[25][26]. For all procedures, temperature was kept constant at 28 °C. Data were analysed using One-way ANOVA, followed by Tukey multiple comparisons test.

Series [6] in a line: in vitro. It is filed as cell-based, murine. As to conditions: mouse. The method, then:
as §1

Series [7] concerns M. tuberculosis H37Rv in infected RAW 264.7 macrophages. Put plainly: Intracellular activity in M. tuberculosis-infected macrophages (CFU). The format is cell-based, Mycobacterium tuberculosis. The settings on record: 5 μM; for Mean log CFU/well ± SEM: 5 days of incubation; for nature of intracellular activity (bactericidal / bacteriostatic): 5 days, vs early and late control.
Setting [8] is: 216 h, 7 days + 48 h resazurin, read-out: MIC H37Rv.
[9] abbreviates: conversion of μg mL^−1 value, read-out: MIC H37Rv converted to.

The structures appear in SMILES notation. “And” between values parts separate entries of the source, which are not always exact repeats. Equal entries are not always repeated. Where two headings read alike, the source gives them in different places. Marks after values point to notes of the source that are not given here.

Turning to `Cc1ccccc1OCc1nc(-c2ccc(NC(=O)c3cccs3)cc2)no1` [Labio_16], the “decrease in compound concentration in stability test” value in series [1] turned out to be 21%. In addition, the Kd in series [2] (15 °C) came out at 900 ± 200 nM; in series [2] (20 °C), 1200 ± 100 nM; in series [2] (25 °C (298.15 K)) it was 1500 ± 200 nM; in series [2] (30 °C), 2000 ± 100 nM. In addition, the ΔG in series [2] is -8.0 kcal/mol and -8.0 ± 3.6 kcal/mol. Moreover, in series [2], the ΔH was -9.4 kcal/mol and -9.4 ± 06 kcal/mol. Moreover, the ΔS in series [2] is −4.8 cal.mol^−1.K^−1 and −4.8 ± 2.2 cal.mol^−1.K^−1. The results for the MIC in series [3] (setting [8]) and in series [3] (setting [9]) were 2.5 µg/mL and 6.4 µM, respectively. For the same compound, the figures for the viability at 72 h, 20 µM in series [4] (African green monkey), in series [4] (human) and in series [6] were 89 ± 12%, 104 ± 12% and 91 ± 1%, respectively. The “heart frequency at 5 dpf” value in series [5] (3.5 μM and 7.0 μM against DMSO control) is “a decrease in the heart rate”. Moreover, the hatching efficiency entry in series [5] (1.0, 3.5, 7.0 μM vs controls) is “No difference”. In addition, in series [5] (all groups, one-way ANOVA), the “heart frequency at 2 dpf” value was “no difference”. For the same compound, the “cardiotoxicity in the Zebrafish model” value in series [5] was “no cardiotoxicity”. The survival rate entry in series [5] was “statistical difference”. In series [7], the “Mean log CFU/well ± SEM” value was determined as 3.9 ± 0.1 log CFU/well. In addition, the “nature of intracellular activity (bactericidal / bacteriostatic)” value in series [7] was “bacteriostatic”.

Take `CCOC(=O)c1ccc2nc(C)cc(Nc3ccc(N4CCCCC4)cc3)c2c1` [Labio_17]: the “decrease in compound concentration in stability test” value in series [1] is given as 21%. The compound further returned a dissociation constant (Kd) in series [2] (25 °C (298.15 K)) of 7200 ± 500 nM. Besides, in series [2], the ΔG is -7.1 ± 0.8 kcal/mol, the ΔH was -23.3 ± 1.9 kcal/mol and the ΔS was −54.5 ± 6.5 cal.mol^−1.K^−1. Moreover, the MIC in series [3] (setting [8]) was 5 µg/mL. In addition, the MIC in series [3] (setting [9]) was determined as 12.8 µM. Moreover, the viability at 72 h, 20 µM in series [4] (African green monkey) is 85 ± 8%. Also, the viability at 72 h, 20 µM in series [4] (human) stood at 84 ± 14%. Further, in series [5] (0.1 μM and 1.0 μM against H2O control), the “heart frequency at 5 dpf” value is given as “no difference”. For the same compound, in series [5] (1.0 μM compared to DMSO control), the “heart frequency at 5 dpf” value is “no difference”. Also, in series [5], the “cardiotoxicity in the Zebrafish model” value is recorded as “signs of cardiotoxicity” and the survival rate entry is “dose-dependent statistical difference”. In series [5] (two highest concentrations, 13.0 μM and 7.5 μM), the hatching efficiency entry is given as “delayed hatching efficiency”. The viability at 72 h, 20 µM in series [6] amounted to 98 ± 2%. Moreover, in series [7], the “Mean log CFU/well ± SEM” value is listed as 3.4 ± 0.1***^++ log CFU/well and the “nature of intracellular activity (bactericidal / bacteriostatic)” value is listed as “bactericidal”.
